Source: PMC8541353, “A Novel Phenylpyrrolidine Derivative: Synthesis and Effect on Cognitive Functions in Rats with Experimental Ishemic Stroke” (Molecules, 2021)

Legend:
Type in all cases: in vivo, Wistar rats
intact animals [1] = experiment: Open field test (OFT) in intact animals; conditions: intact rats, day 7; compound 1 125 mg kg^−1, piracetam 300 mg kg^−1, intraperitoneally for 5 days; mean and SD
Text: (§1) Before the study, the intact animals were subjected to the hole-board test (HBT), weighed, and stratified into three uniform groups in terms of orientational/exploratory activity and weight. […] On day 7, we performed OFT (open field test), followed by LDB (light—dark box test) on day 8 (Scheme 3, Step 1). These tests assess the activity and describe the behavior of the animals. According to OFT, compound 1 decreased the vertical activity and the immobility time compared to the saline-treated group (Table 2).
(§2) Before conducting the experiments, the animals underwent the HBT and were allocated to groups based on their behavior score and weight. Kullback–Leibler divergence method for allocation based on two numerical parameters was used for allocation. We used a sum score for behavior tests and weight. Subsequently, two experimental series were performed. In the first series, rat behavior without stroke modeling after injection of compound 1 (experimental group, n = 10) or saline (control group, n = 10) was evaluated (Scheme 3a). […] Compound 1 was injected at a dose of 125 mg kg^−1 and an injection volume of 0.5 mL. […] For the experiments, the following predetermined exclusion criteria were used: (1) incomplete MCAO indicated by an incomplete lesion on magnetic resonance imaging (MRI) after 24 h [n = 4]and (2) post-operative weight loss of > 20% and severe animal condition within the first post-stroke 48 h [n = 3]. Animals reached humane endpoints based on the absence of nociceptive reflex withdrawal responses, hypothermia, and heart rate reduction to 100–150 beats min^−1. As steroid treatment could have influenced the experiment, rats were humanely euthanized according to the ethical protocol. The experiment design is presented in Scheme 3b.
(§3) In the first experimental series, the following test systems were used: HBT (OpenScience, Russia), OFT (OpenScience), and LDT (OpenScience). The design for the second experimental series was as follows. All rat behavioral changes were evaluated during the four weeks after stroke simulation. Individuals who performed these procedures were double-blinded. General neurological disorders were assessed using the modified neurological severity score (mNSS). Motor and cognitive impairment were evaluated using the following functional tests: BWT (OpenScience), HBT (OpenScience), and OFT (OpenScience). The BWT was performed between postoperative days 12 and 14. In this test, motor dysfunction in all four limbs was evaluated; specifically, the number of steps, errors, and slides were counted. The overall score was calculated using the following formula: score = errors + 0.5 × slides × 100/total number of steps [47]. The beam apparatus consists of 165 cm beams with a flat surface of 10 mm or 6 mm width, resting 100 cm above the table top on two poles. A black box is placed at the end of the beam as the finish point. Nesting material from home cages is placed in the black box to attract the rat to the finish point. A lamp (with 60-watt light bulb) is used at the start to stimulate the animals to move towards the end.

intact animals [2] = experiment: Light-dark box test (LDB) in intact animals; conditions: intact rats, day 8; compound 1 125 mg kg^−1, piracetam 300 mg kg^−1, intraperitoneally for 5 days; mean and SD
Text: as §1, §2, §3

rats with MCAO [3] = experiment: Neurological deficit (mNSS) in MCAO model; conditions: 24 h to day 7
Method: A MCAO animal model was used to characterize the effects of compound 1 on the development and resolution of stroke. At the baseline, we performed the MRI and hole-board test before MCAO surgery. Once animals recovered after the surgery, we stratified them based on their background psycho-emotional status and performed a control MRI to access whether the occlusion was sufficient or not. […] From 24 h to day 7, the neurological status was assessed daily according to the neurological scale (mNSS). By the end of day 7, animals underwent MRI. In addition, MRI was performed on days 14 and 28 (Shceme 3)The hole-board test was repeated on days 10 and 24. The degree of motor function impairment, the deficit of exploratory behavior, and the recovery process were assessed in the beam walking test (BWT), which was performed twice on days 12 and 14. An open field test was carried out on days 16 and 26. […]
In the first experimental series, the following test systems were used: HBT (OpenScience, Russia), OFT (OpenScience), and LDT (OpenScience). […] All rat behavioral changes were evaluated during the four weeks after stroke simulation. […] General neurological disorders were assessed using the modified neurological severity score (mNSS). Motor and cognitive impairment were evaluated using the following functional tests: BWT (OpenScience), HBT (OpenScience), and OFT (OpenScience). […]

rats with MCAO [4] = experiment: Beam walking test (BWT) after MCAO; design: key to Left forelimb score / Right forelimb score / Left hindlimb score / Right hindlimb score: score = errors + 0.5 × slides × 100/total number of steps; conditions: for Animals that failed to train for the BWT test: after MCAO, days 12–14; for Left forelimb score / Left hindlimb score / Right forelimb score / Right hindlimb score: day 14 after MCAO, mean ± SD
Method: A MCAO animal model was used to characterize the effects of compound 1 on the development and resolution of stroke. At the baseline, we performed the MRI and hole-board test before MCAO surgery. Once animals recovered after the surgery, we stratified them based on their background psycho-emotional status and performed a control MRI to access whether the occlusion was sufficient or not. […] From 24 h to day 7, the neurological status was assessed daily according to the neurological scale (mNSS). By the end of day 7, animals underwent MRI. In addition, MRI was performed on days 14 and 28 (Shceme 3)The hole-board test was repeated on days 10 and 24. The degree of motor function impairment, the deficit of exploratory behavior, and the recovery process were assessed in the beam walking test (BWT), which was performed twice on days 12 and 14. An open field test was carried out on days 16 and 26.
The increased locomotor activity, expanded orientational research activity, and reduced anxiety and depressive behavior in rats treated with compound 1 highlighted the possible benefits of the compound in post-ischemic stroke management. As stroke affects not only locomotor activity but also the cognitive behavior, we conducted an additional beam walking test. It is proven that depression and anxiety in the post-stroke period increase the risk of mortality and affect the functional recovery of patients. There is a direct relationship between the severity of cognitive deficits, patients’ survival, and their successful social integration. Conventionally, BWT is aimed at finding motor deficits on the contralateral side of the brain lesion. However, based on the test methodology, which was testing animals before surgery and on the 12th–14th days after surgery, we can indirectly conclude whether the memory trace is preserved or lost. […] Most of the animals from the saline group sat still and one rat fell. Since the hippocampus, which is a structure responsible for the formation of both […] and long-term memory, is involved in the pathological process of ischemia, in rats, we hypothesized that the ability to reproduce and form a memorable trace can be also affected in our MCAO model. According to MRI data, the hippocampus was indeed affected by MCAO. Thus, compound 1 possibly helped to restore neural connections in the hippocampus as quickly as possible.
as §3

SMILES | Crossings (n) (intact animals [1]) | Grooming time (intact animals [1]) [s] | Immobility duration (intact animals [1]) [s] | Number of center sector crossings (center) (n) (intact animals [1]) | Vertical activity (n) (intact animals [1]) | Number of crossings (n) (intact animals [2]) | Number of peeking out events (n) (intact animals [2]) | Time spent in the light compartment (intact animals [2]) [s] | Regression of neurological symptoms (rats with MCAO [3]) [%] | Animals that failed to train for the BWT test (rats with MCAO [4]) | Left forelimb score (rats with MCAO [4]) | Left hindlimb score (rats with MCAO [4]) | Right forelimb score (rats with MCAO [4]) | Right hindlimb score (rats with MCAO [4])
O=C(CN1CC(c2ccccc2)CC1=O)NCCS(=O)(=O)[O-].[K+] (stereo not shown) [Compound 1, potassium 2-[2-(2-oxo-4-phenylpyrrolidin-1-yl)acetamido]ethane-1-sulfonate] | 53.7 ± 10.3 | 40.6 ± 33.2 | 12.8 ± 8.4 | 1.6 ± 0.6 | 10.3 ± 4.3 | 2.9 ± 1.2 | 5.2 ± 2.8 | 16.5 ± 8.3 | 35 | No animals failed | 42.2 ± 28.0 | 28.8 ± 15.3 | 11.6 ± 13.8 | 45.8 ± 30.4
NC(=O)CN1CCCC1=O [Piracetam, reference compound] | 65.4 ± 20.4 | 14.4 ± 9.4 | 16.0 ± 10.4 | 1.4 ± 1.2 | 15.9 ± 7.5 | 3.7 ± 1.6 | 4.8 ± 2.5 | 26.3 ± 13.4 | 25 | more than half of the animals and five | 32.8 ± 26.4 | 24.8 ± 22.2 | 12.4 ± 16.0 | 36.0 ± 30.4
